The results in this text go back to patent US20260000781A1, “FC CONJUGATES INCLUDING AN INHIBITOR OF CD73 AND USES THEREOF” (Cidara Therapeutics, Inc., priority 2022, published 2026).

As a reminder, the IC50 is the concentration that gives 50% inhibition. By Kd is commonly meant the constant that tells how readily two partners part at equilibrium. A low value points to tighter binding.

The target in experiment [1] is T1, CD73 on 4T1 mouse cells (Mus musculus, UniProt Q61503).
T1 construct: host or cells: 4T1
T1 sequence (Q61503 29-551): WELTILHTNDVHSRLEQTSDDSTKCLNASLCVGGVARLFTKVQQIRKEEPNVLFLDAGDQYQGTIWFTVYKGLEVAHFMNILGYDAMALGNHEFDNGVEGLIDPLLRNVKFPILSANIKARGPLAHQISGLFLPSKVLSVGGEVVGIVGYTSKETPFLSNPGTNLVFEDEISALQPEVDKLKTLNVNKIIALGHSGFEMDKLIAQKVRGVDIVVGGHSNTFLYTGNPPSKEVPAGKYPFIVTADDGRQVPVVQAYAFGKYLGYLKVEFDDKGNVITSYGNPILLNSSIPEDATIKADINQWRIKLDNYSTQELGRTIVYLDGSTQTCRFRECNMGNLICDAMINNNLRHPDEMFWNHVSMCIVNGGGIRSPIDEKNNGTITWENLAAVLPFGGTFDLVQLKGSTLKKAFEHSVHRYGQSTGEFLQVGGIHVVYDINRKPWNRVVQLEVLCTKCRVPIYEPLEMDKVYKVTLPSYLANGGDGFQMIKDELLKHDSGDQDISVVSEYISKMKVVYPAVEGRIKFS
Briefly: CD73 enzyme inhibition assay with mouse 4T1 cells (PiColorLock). The class given is cell-based. Particulars: 4T1 cancer cells, AMP 100 μM. As for the experimental part:
The cell-based CD73 enzyme inhibition assay was performed in a 96-well plate format using the PiColorLock phosphate assay kit in accordance with the manufacturer's instructions (Abcam cat no. 270004). 4T1 mouse cells are a model for stage IV human breast cancer (ATCC CRL-2539) and human peripheral blood mononuclear cells (PBMCs; StemCell Technologies cat no. 70025) from three different donors were assayed. 4T1 cells were washed three times with a phosphate-free CD73 buffer (Lawson et al., 2020), detached from tissue-culture flasks using a cell scraper, and seeded at 5×10^3 cells/well into 96-well tissue culture-treated plates. Human PBMCs were washed three times with phosphate-free CD73 buffer at 125×g for 10 min at room temperature and seeded at 1×10^5 cells/well into 96-well tissue culture-treated plates. Test articles were tested from 0.001 nM to 1,000 nM (4T1 cells) or 0.0001 nM to 100 nM (PBMCs) and incubated with cells for 30 min at 37° C., 5% CO2. AMP (100 μM final concentration) was added to cells and test articles, and the reaction incubated for 3 h and 24 h at 37° C., 5% CO2. The conversion of AMP to adenosine and phosphate in cell-free supernatant was quantified using the PiColorLock kit. Colorimetric detection reagent was added and the phosphate production was measured by reading the absorbance at 635 nm with the EnSpire multimode plate reader (PerkinElmer). Cells without test article (positive control) were included on each plate. Control wells without test article and cells (background) were subtracted from all wells. Percent CD73 inhibition versus inhibitor concentration was plotted using GraphPad Prism Version 8 and IC50's calculated using nonlinear regression analysis (Sigmoidal, 4 PL).

The target of experiment [2] is T2, CD73 (Homo sapiens, UniProt P21589).
T2 sequence (P21589 27-549): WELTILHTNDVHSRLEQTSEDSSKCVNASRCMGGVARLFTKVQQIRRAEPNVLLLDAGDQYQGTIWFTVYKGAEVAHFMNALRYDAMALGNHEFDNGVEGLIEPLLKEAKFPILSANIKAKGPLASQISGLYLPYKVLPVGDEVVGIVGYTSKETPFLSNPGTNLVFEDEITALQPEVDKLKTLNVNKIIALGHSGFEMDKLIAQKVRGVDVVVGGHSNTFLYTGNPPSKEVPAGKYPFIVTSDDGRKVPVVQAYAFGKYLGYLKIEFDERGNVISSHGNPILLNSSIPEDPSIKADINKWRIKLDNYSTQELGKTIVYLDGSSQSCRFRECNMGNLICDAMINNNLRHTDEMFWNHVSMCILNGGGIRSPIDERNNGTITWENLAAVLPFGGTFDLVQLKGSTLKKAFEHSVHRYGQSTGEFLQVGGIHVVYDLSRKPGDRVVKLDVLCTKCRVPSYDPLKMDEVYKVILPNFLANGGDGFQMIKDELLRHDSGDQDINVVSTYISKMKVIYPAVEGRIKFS
The experiment is described as follows: Cell-free CD73 enzyme inhibition assay (BPS Bioscience kit, colorimetric free phosphate). As to conditions: AMP 100 μM, 25 min at 37° C. The experiment is classed as biochemical. As for the experimental part: The cell-free CD73 enzyme inhibition assay was performed in a 96-well plate format using the CD73 Inhibitor Screening Assay Kit in accordance with the manufacturer's instructions (BPS Bioscience cat no. 72055). […] Colorimetric detection reagent was then added (100 μL/well) and the free phosphate from the CD73 reaction was measured by reading the absorbance at 630 nm using the EnSpire multimode plate reader (PerkinElmer). Wells without test inhibitor (CD73 positive control) were included on each plate. Blank wells without test inhibitor and CD73 were subtracted from all wells. Percent CD73 inhibition (y-axis) versus log10 inhibitor concentration (x-axis) was plotted using GraphPad Prism Version 8 and IC50's calculated using nonlinear regression analysis (Sigmoidal, 4 PL).

The target in experiment [3] is T3, CD73 expressed on the MDA-MB-231 cell surface (Homo sapiens, UniProt P21589).
T3 construct: host or cells: MDA-MB-231
T3 sequence (P21589 27-549): T2 sequence (P21589 27-549)
Briefly: Cell-based CD73 enzyme inhibition assay using MDA-MB-231 cells (CellTiter-Glo). Here is the method:
The cell-based CD73 enzyme inhibition assay was performed essentially as described above for the cell-free assay, with the following modifications. MDA-MB-231 human breast adenocarcinoma cells (ATCC CRM-HTB-26) were seeded at 2×10^4 cells/well/100 μL into 96-well tissue culture-treated plates (Corning Costar cat no. 3596) and incubated overnight at 37° C., 5% CO2. Cells were incubated with test inhibitors (50 μL/well) and AMP (25 μL/well, final 400 μM) for 3 h at 37° C., 5% CO2 to allow for interaction with CD73 expressed on the MDA-MB-231 cell surface. The 96-well plate was then centrifuged at 125×g for 5 min at room temperature and ATP (25 μL/well, 100 μM final) was combined with supernatant (25 μL/well) in a white opaque 96-well plate (Corning Costar cat no. 3912). The CD73 activity in the supernatant was quantified using the CellTiter-Glo kit (Promega cat no. G7571). Percent CD73 inhibition (y-axis) versus log10 inhibitor concentration (x-axis) were plotted using GraphPad Prism Version 8 and IC50's calculated using nonlinear regression analysis (Sigmoidal, 4 PL).
An additional assay was performed to test the effect of linker length on IC50 potency using the cell-based CD73 enzyme inhibition assay. Conjugate 194, Conjugate 195, and Conjugate 196 have the same small molecule targeting moiety (Int) as Conjugate 172c (batch 9) but with varying linker lengths.
Background: In ATP-based viability assays light output follows the ATP content of the culture.

Experiment [4] concerns the target T4, human CD73/NT5E protein (Homo sapiens, UniProt P21589).
T4 construct: purchased Acro Biosystems CD3-H52H7
T4 sequence (P21589 27-549): T2 sequence (P21589 27-549)
Briefly: Human CD73 binding by surface plasmon resonance. As to conditions: SPR, Biacore 8k; DFCs and mAbs on His-captured CD73, small molecules on NTA-captured CD73 (Table 14). Background: SPR reads the build-up and loss of mass on a sensor chip optically.
Description: Kinetic binding of drug-Fc conjugates (DFCs) and comparator monoclonal antibodies (mAbs) to human CD73 by surface plasmon resonance (SPR) was performed by Acro Biosystems using the Biacore 8 k system (Cytiva). The anti-histidine antibody included in the His Capture Kit, type 2 (cat no. 29234602, Cytiva) was diluted to 50 μg/mL in immobilization buffer (10 mM sodium acetate, pH 4.5; cat no. 29234602, Cytiva) and immobilized at a flow rate of 10 μL/min for 420 s to 10,000 RU on a Series S Sensor Chip CM5 (cat no. 29149603, Cytiva). […] Sensorgrams were recorded by flowing 2-fold dilutions of analyte (DFC or mAb) in running buffer at concentrations ranging from 125 nM to 0.977 nM. Binding was measured at a flow rate of 30 μL/min, with a 90 s association phase and 120 s dissociation phase. […] Binding kinetics were analyzed using the data analysis software. […]
Binding of small molecule benchmark inhibitors to human CD73 by SPR was performed by Acro Biosystems using the Biacore 8 k system (Cytiva). […] Sensorgrams were recorded by flowing 2-fold dilutions of DFC analytes in running buffer at concentrations ranging from 15.625 nM to 0.977 nM. Binding was measured at a flow rate of 30 μL/min, with a 120 s association phase and 300 s dissociation phase. […] Binding kinetics were analyzed using the data analysis software. […]

Setting [5] is: MDA-MB-231 cells, AMP 400 μM, 3 h, Table 29 experiment.

SMILES strings stand for the structures. Where “and” joins values, the source holds several entries; their conditions need not be identical. Equal entries are not always repeated. Where two headings read alike, the source gives them in different places.

For `C[C@H](Nc1cc(Cl)nc2c1cnn2[C@@H]1O[C@H](COP(=O)(O)CP(=O)(O)O)[C@@H](O)[C@H]1O)c1ccccc1F` [AB680], the half-maximal inhibitory concentration (IC50) in experiment [1] (24 h, read-out: 24 h IC50) stood at 85.7 nM; in experiment [1] (3 h IC50 [nM], 3 h) it was 6.79 nM.
With `COC[C@](CO)(OC[C@H]1O[C@@H](n2ncc3c(NC4CCCC4)nc(Cl)nc32)[C@H](O)[C@@H]1O)P(=O)(O)O` [OP-5244], the IC50 in experiment [2] is 3.8 nM and 3.79 nM; in experiment [3] (setting [5]), 0.9 nM and 0.87 nM; in experiment [1] (24 h, read-out: 24 h IC50) it was 24 nM; in experiment [1] (read-out: 3 h IC50, 3 h) it was 1.67 nM. The same compound came in with a Kd in experiment [4] of 0.523 nM.
Regarding `O=P(O)(O)COC[C@H]1O[C@@H](n2ncc3c(N4CC5(CCc6ccccc65)C4)nc(Cl)nc32)[C@H](O)[C@@H]1O` [SHR170008], the half-inhibitory concentration (IC50) in experiment [2] came out at 12.9 nM; in experiment [3] (setting [5]) it was 3.7 nM; in experiment [3] (additional assay on linker length, Table 30 experiment), 4 nM; in experiment [1] (24 h, read-out: 24 h IC50) it was 114 nM; in experiment [1] (read-out: 3 h IC50, 3 h), 8.2 nM. This compound also came in with an equilibrium dissociation constant (Kd) in experiment [4] of 3.34 nM.
